Patent publication US11365192B2, “Pyridine compound substituted with azole” (TAISHO PHARMACEUTICAL CO., LTD., priority 2017, dated 2022)

Assays:
[1] = target: human CYP4A11 (Homo sapiens (Human), UniProt Q02928); experiment: Inhibition test against 20-HETE producing enzyme CYP4A11 (luciferine derivative, luminescence); type: biochemical
Method in brief: (§1)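 IC50 derived from luminescence after 60 min at room temperature with membrane fractions of E. coli expressing each human CYP (100 μg/mL protein). For CYP4A11, 60 μM luciferin derivative in 100 mM Tris-HCl pH 7.5 with NADPH-regenerating system; for CYP4F2, 2.5 μM substrate, 1 mM NADPH, 50 mM KPO4 pH 7.4.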

[2] = target: human CYP4F2 (Homo sapiens (Human), UniProt P78329); experiment: Inhibition test against 20-HETE producing enzyme CYP4F2 (luciferine derivative, luminescence); type: biochemical
Method in brief: as §1

[3] = E. coli membrane fraction expressing human CYP4A11, 60 μM luciferine derivative, room temperature 60 minutes
[4] = E. coli membrane fraction expressing human CYP4F2, 2.5 μM luciferine derivative, room temperature 60 minutes
[5] = human CYP4A11, luciferine derivative, luminescence
[6] = human CYP4F2, luciferine derivative, luminescence

Chain of human CYP4F2 (P78329 5-520): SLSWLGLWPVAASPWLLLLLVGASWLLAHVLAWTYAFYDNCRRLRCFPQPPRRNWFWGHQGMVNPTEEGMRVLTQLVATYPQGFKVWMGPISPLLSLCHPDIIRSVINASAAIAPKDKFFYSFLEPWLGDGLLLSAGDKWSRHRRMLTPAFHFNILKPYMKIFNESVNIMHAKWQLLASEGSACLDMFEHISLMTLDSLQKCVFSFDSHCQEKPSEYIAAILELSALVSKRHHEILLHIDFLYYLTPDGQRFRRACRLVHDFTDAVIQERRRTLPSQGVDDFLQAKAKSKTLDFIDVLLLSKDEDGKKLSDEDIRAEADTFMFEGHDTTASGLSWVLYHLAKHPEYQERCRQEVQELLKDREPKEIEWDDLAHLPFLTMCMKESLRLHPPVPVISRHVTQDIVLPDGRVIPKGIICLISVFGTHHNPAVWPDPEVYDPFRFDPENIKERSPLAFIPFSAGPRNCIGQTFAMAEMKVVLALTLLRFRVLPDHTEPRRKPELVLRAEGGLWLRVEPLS
Chain of human CYP4A11 (Q02928 5-519): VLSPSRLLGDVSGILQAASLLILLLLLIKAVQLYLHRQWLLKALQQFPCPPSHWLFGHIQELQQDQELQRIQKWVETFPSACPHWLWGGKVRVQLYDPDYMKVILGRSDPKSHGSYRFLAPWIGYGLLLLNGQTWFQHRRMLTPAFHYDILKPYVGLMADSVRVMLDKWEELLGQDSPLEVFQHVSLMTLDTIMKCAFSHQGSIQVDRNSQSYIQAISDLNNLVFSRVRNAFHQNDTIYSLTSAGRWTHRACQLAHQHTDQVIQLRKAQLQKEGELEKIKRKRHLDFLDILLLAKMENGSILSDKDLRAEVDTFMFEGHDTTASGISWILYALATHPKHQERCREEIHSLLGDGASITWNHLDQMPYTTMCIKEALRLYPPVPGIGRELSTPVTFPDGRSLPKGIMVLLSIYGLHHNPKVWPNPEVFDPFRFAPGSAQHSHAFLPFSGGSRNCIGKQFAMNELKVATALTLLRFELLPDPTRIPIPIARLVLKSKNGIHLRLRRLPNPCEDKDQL

Row | Structure (SMILES) | IC50 [1, 3] | IC50 [2, 4] | IC50 [1, 5] | IC50 [2, 6]
1 | O=C(O)c1ccc(COc2ccc(-c3ccn[nH]3)nc2)cc1 [Example 1-1, 4-[[6-(1H-Pyrazol-5-yl)-3-pyridinyl]oxymethyl]benzoic Acid] | 37 nM | 15000 nM | – | –
2 | O=C(NCc1ccccc1C(=O)O)c1cccc(COc2ccc(-c3ccn[nH]3)nc2)c1 [Example 45-26] | – | – | 31 nM | 880 nM
3 | CC(C)(Oc1cc(COc2ccc(-c3ccn[nH]3)nc2)ccn1)C(=O)O [Example 22-13, 2-Methyl-2-[[4-[[6-(1H-pyrazol-5-yl)-3-pyridinyl]oxymethyl]-2-pyridinyl]oxy]propanoic Acid] | 380 nM | 11000 nM | – | –
4 | O=c1[nH]c(CCCCCOc2ccc(-c3ccn[nH]3)nc2)no1 [Example 62-2, 3-[5-[[6-(1H-Pyrazol-5-yl)-3-pyridinyl]oxy]pentyl]-4H-1,2,4-oxadiazol-5-one] | 27 nM | 1900 nM | – | –
5 | O=C(O)C12CCCC(CCCOc3ccc(-c4ccn[nH]4)nc3)(C1)C2 [Example 1-55] | 30 nM | 3700 nM | – | –
6 | O=C(O)CC[C@H]1CCC[C@@H](COc2ccc(-c3ccn[nH]3)nc2)C1 (racemic) [Example 2-6, cis-3-[3-[[6-(1H-Pyrazol-5-yl)-3-pyridinyl]oxymethyl]cyclohexyl]propanoic Acid (Racemate)] | 25 nM | 1300 nM | – | –
7 | O=C(O)CCc1ccccc1COc1ccc(-c2ccn[nH]2)nc1 [Example 1-4] | 110 nM | 16000 nM | – | –
8 | CC(=O)N1CC(CCCCCCCCOc2ccc(-c3ccn[nH]3)nc2)(C(=O)O)C1 [Example 71-44] | – | – | 1000 nM | 37 nM
9 | O=C(O)C1CCN(C(=O)c2cccc(COc3ccc(-c4ccn[nH]4)nc3)c2)CC1 [Example 45-27] | – | – | 510 nM | 2200 nM
10 | O=C(O)c1ccccc1-c1cccc(COc2ccc(-c3ccn[nH]3)nc2)c1 [Example 8-4] | 250 nM | 4300 nM | – | –
11 | O=C(N[C@H]1C[C@@H](C(=O)O)C1)c1cccc(COc2ccc(-c3ccn[nH]3)nc2)c1 [Example 45-21] | – | – | 580 nM | 6100 nM
12 | O=C(O)C1CC1c1ccc(COc2ccc(-c3ccn[nH]3)nc2)c(F)c1 (centres unmarked) [Example 71-24] | – | – | 72 nM | 2100 nM
13 | CC(C)(C(=O)O)c1cccc(COc2ccc(-c3ccn[nH]3)nc2)c1 [Example 24-2, Sodium 2-methyl-2-[3-[[6-(1H-pyrazol-5-yl)-3-pyridinyl]oxymethyl]phenyl]propanoate] | 16 nM | 3500 nM | – | –
14 | O=C(O)CCCCOc1ccc(-c2ccn[nH]2)nc1 [Example 10-1, 5-[[6-(1H-Pyrazol-5-yl)-3-pyridinyl]oxy]pentanoic Acid] | 560 nM | 19000 nM | – | –
15 | O=C1CN(CCCCOc2ccc(-c3ccn[nH]3)nc2)C(=O)N1 [Example 61-2, 1-[4-[[6-(1-H-pyrazol-5-yl)-3-pyridinyl]oxy]butyl]imidazolidine-2,4-dione] | 750 nM | 280 nM | – | –
16 | CS(=O)(=O)NC(=O)NCCCCOc1ccc(-c2ccn[nH]2)nc1 [Example 61-1, 1-Methylsulfonyl-3-[4-[[6-(1-H-pyrazol-5-yl)-3-pyridinyl]oxy]butyl]urea] | 72 nM | 8000 nM | – | –
17 | OCc1ccc(COc2ccc(-c3ccn[nH]3)nc2)cc1 [Example 23-4] | 2000 nM | 51 nM | – | –
18 | O=C(O)C1CC1CCCOc1ccc(-c2ccn[nH]2)nc1 (centres unmarked) [Example 1-27] | 38 nM | 41000 nM | – | –
19 | CN(C)C(=O)C1CC1c1cccc(COc2ccc(-c3ccn[nH]3)nc2)c1 (centres unmarked) [Example 43-16] | – | – | 190 nM | 22 nM
20 | C[C@H](NC(=O)c1cccc(COc2ccc(-c3ccn[nH]3)nc2)c1)C(=O)O [Example 45-9] | – | – | 82 nM | 4800 nM
21 | CC(C)(CCNC(=O)c1cccc(COc2ccc(-c3ccn[nH]3)nc2)c1)C(=O)O [Example 45-14] | – | – | 51 nM | 410 nM
22 | Cc1ccc(COc2ccc(-c3ccn[nH]3)nc2)cc1O [Example 12-1, 2-Methyl-5-[[6-(1H-pyrazol-5-yl)-3-pyridinyl]oxymethyl]phenol] | 260 nM | 6.2 nM | – | –
